Assay results from US20220241409A1, “WATER SOLUBLE ADJUVANT AND COMPOSITION CONTAINING SAME” (Sumitomo Dainippon Pharma Co., Ltd., priority 2019, published 2022).
pEC50: −log10 of the molar value.

What was measured:
human TLR7 = target: T1, human TLR7 (Homo sapiens, UniProt Q9NYK1); assay: Human TLR7 reporter gene assay (Test 1); format: cell-based; conditions: half-maximal SEAP induction, TLR7/NF-κB/SEAPorter HEK293 cell line, overnight 37° C., 0.1% DMSO
T1 construct: expresses full-length human TLR7 and secretory alkaline phosphatase (SEAP) reporter gene; host or cells: TLR7/NF-κB/SEAPorter HEK293 cell line
T1 sequence (Q9NYK1 27-1049): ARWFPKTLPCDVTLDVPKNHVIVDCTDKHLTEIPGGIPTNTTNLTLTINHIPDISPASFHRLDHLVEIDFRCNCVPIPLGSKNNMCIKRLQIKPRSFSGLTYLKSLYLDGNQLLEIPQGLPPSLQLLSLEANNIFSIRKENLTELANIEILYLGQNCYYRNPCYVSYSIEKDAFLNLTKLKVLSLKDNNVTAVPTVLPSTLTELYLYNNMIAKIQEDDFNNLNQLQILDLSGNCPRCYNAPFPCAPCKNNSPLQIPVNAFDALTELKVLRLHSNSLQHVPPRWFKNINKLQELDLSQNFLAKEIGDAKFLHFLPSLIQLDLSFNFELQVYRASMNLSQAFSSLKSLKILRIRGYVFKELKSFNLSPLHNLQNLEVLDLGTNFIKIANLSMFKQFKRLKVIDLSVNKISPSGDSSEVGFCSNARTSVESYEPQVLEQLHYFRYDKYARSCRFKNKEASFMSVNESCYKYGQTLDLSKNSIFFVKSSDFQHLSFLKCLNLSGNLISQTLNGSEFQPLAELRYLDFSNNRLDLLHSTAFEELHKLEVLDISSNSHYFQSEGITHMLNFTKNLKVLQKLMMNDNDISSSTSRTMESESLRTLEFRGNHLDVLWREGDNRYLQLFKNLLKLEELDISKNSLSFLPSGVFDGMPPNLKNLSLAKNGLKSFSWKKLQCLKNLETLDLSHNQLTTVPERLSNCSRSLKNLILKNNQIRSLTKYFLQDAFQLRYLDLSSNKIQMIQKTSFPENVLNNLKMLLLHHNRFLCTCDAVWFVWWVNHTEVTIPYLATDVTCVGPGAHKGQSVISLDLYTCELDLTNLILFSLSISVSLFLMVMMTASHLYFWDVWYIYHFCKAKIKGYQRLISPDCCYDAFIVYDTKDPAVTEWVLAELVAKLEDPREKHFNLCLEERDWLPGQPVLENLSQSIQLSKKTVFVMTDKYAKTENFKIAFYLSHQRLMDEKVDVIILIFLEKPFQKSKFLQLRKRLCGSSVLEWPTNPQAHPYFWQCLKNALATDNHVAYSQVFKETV
Excerpt: TLR7/NF-κB/SEAPorter™ HEK293 cell line (Imgenex Corporation) is a stably co-transfected cell line which expresses full-length human TLR7 and secretory alkaline phosphatase (SEAP) reporter gene under the transcriptional regulation of an NF-κB response element. The TLR7 expression of the cell line has been already tested by flow cytometry. Transfectants with stable expression were selected using the antibiotic blasticidin and Geneticin. TLR signaling leads to the translocation of NF-κB and the activation of the promoter results in expression of the SEAP gene. TLR7-specific activation was assessed by determining the level of SEAP produced following overnight incubation of the cells at 37° C. with each compound prepared in Examples and Reference examples in the presence of 0.1% (v/v) dimethylsulfoxide (DMSO). The human TLR7 activity for the present compound was assessed by human TLR7 reporter gene assay, and the results are shown in Tables 6 and 7 as the compound concentration which produced half of the maximal level of SEAP induction (EC50).

mouse TLR7 = target: T2, mouse TLR7 (Mus musculus, UniProt P58681); assay: Mouse TLR7 reporter gene assay (Test 2); format: cell-based; conditions: half-maximal SEAP induction, HEK-Blue mTLR7 cell line, overnight 37° C., 0.1% DMSO
T2 construct: expresses full-length mouse TLR7 and secretory SEAP reporter gene; host or cells: HEK-Blue mTLR7 cell line
T2 sequence (P58681 27-1050): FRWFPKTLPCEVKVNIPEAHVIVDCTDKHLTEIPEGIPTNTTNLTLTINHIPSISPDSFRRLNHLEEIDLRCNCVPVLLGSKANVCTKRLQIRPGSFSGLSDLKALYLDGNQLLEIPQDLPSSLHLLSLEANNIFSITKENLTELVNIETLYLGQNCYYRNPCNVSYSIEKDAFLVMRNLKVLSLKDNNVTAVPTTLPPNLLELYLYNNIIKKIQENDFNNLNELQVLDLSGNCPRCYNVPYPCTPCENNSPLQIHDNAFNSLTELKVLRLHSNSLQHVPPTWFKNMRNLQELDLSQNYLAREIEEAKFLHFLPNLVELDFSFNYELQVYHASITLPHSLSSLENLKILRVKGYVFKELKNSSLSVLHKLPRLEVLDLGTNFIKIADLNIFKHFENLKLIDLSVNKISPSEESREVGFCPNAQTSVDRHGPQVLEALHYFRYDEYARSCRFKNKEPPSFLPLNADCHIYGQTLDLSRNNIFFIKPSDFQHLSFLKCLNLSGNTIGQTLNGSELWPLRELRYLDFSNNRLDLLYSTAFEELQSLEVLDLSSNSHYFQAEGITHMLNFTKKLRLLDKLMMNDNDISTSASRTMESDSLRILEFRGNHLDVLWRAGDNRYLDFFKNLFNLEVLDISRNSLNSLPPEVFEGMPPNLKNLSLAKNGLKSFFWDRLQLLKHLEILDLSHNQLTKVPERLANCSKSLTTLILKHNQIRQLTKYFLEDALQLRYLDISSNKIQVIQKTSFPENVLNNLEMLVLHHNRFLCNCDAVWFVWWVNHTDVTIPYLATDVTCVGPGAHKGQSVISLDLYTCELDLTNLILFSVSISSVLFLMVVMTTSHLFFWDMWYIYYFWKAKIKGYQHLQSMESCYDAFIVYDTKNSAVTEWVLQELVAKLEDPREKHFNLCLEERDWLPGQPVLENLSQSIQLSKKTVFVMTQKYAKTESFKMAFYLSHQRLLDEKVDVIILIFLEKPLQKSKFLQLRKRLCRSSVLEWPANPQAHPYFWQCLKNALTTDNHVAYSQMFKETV
Excerpt: HEK-Blue™ mTLR7 cell line (Invivogen) is a stably co-transfected cell line which expresses full-length mouse TLR7 and secretory SEAP reporter gene under the transcriptional regulation of an NF-κB response element. The TLR7 expression of the cell line has been already tested by RT-PCR. Transfectants with stable expression were selected using the antibiotic blasticidin and Zeocin. TLR signaling leads to the translocation of NF-κB and the activation of the promoter results in expression of the SEAP gene. TLR7-specific activation was assessed by determining the level of SEAP produced following overnight incubation of the cells at 37° C. with each compound prepared in Examples and Reference examples in the presence of 0.1% (v/v) DMSO. The mouse TLR7 activity for the present compound was assessed by mouse TLR7 reporter gene assay, and the results are shown in Tables 8 and 9 as the compound concentration which produced half of the maximal level of SEAP induction (EC50).

Row | pEC50 (human TLR7; Table 7, Reference examples) | pEC50 (mouse TLR7; Table 9, Reference examples) | Compound | pEC50 (human TLR7; Table 6, Examples) | pEC50 (mouse TLR7; Table 8, Examples)
1 | – | – | CCCCOc1nc(N)c2[nH]c(=O)n(Cc3ccc(CN(C)CCOCCOCCOCCOCCO)nc3)c2n1 [Example 2, 6-amino-2-butoxy-9-{[6-(16-hydroxy-2-methyl-5,8,11,14-tetraoxa-2-azahexadecan-1-yl)pyridin-3-yl]methyl}-7,9-dihydro-8H-purin-8-one-trifluoroacetate] | 6.11 | 6.29
2 | – | – | CCCCOc1nc(N)c2[nH]c(=O)n(Cc3ccc(CN(C)CCOCCOCCOCCOCCO)cc3)c2n1 [Example 3, 6-amino-2-butoxy-9-{[4-(16-hydroxy-2-methyl-5,8,11,14-tetraoxa-2-azahexadecan-1-yl)phenyl]methyl}-7,9-dihydro-8H-purin-8-one] | 7.62 | 7.38
3 | 6.24 | 6.60 | CCCCOc1nc(N)c2[nH]c(=O)n(Cc3ccc(CNC)nc3)c2n1 [Reference example 12, reference compound] | – | –
4 | 7.92 | 7.64 | CCCCOc1nc(N)c2[nH]c(=O)n(Cc3ccc(CNC)cc3)c2n1 [Reference example 14, reference compound] | – | –
